For one series, the system named is Escherichia coli. The series can be described thus: Antibacterial activity against Escherichia coli B-3704 after 24 hrs by antibiotic disk assay. It is filed as functional.
A short description of series [1]: Toxicity in chick embryo up to 100 ug. Also noted: species or system Gallus gallus. The settings on record: chicken.
In the next series the test system is Bacillus cereus. The series is described as follows: Antibacterial activity against Bacillus cereus B-3705 after 24 hrs by antibiotic disk assay. It is filed as functional.

The structures appear in SMILES notation.

As to `O=C/C=C/C=C/C=C/C=C/C=C/C=C/C=O`, the MIC is 50 µg against Escherichia coli and 10 µg in the series with Bacillus cereus. For the same molecule, the Activity entry in series [1] was “Non-toxic”.

For the origin of these results see ChEMBL document CHEMBL1158250, “(all trans)-2,4,6,8,10,12-tetradecahexene-1,14-dial, a new pigment from Conidiobolus paulus” (J Nat Prod, 1996).
